The source of these data is ChEMBL document CHEMBL1201862, “PubChem BioAssay data set” (2004).

Active and inactive are the calls of the source. Unless noted, no cut-off for these calls is given here. Some results are limits rather than exact numbers.

Experiment [1] relates to A-375. Nature of the experiment: MITF: Counter assay: A375 proliferation Measured in Cell-Based System Using Plate Reader - 2084-03_Inhibitor_Dose_DryPowder_Activity. [Related pubchem assays (depositor defined):AID488944]. It is filed as functional. The note with it: Homo sapiens.
Experiment [2] deals with A-375. Nature of the experiment: proliferation inhibition in MITF-low A375 cells – cell-based, cherry-pick samples, set 2, counter-screen for MITF modulator project, dose response (AID 540335). It is filed as functional. The settings on record: Homo sapiens. In general terms: Counterscreens check selectivity or assay interference.
A short description of experiment [3]: blockers of SFLLRN-triggered platelet ATP secretion – cell-based, human platelets, luminescence, dry powder, dose response (AID 493100). It is filed as functional.
Experiment [4] in a line: Luminescence Cell-Based Dose Response Follow up to Identify Inhibitors of Platelet Dense Granule Release. [Related pubchem assays (depositor defined):AID1663, AID1678, AID1889, AID2519]. Type of experiment: functional.
For another experiment, the target named is Trypsin (Sus scrofa, UniProt P00761). As to the kind of experiment: trypsin protease activity blockade – biochemical, quenched peptide fluorescence, cherry-pick, selectivity assay for Rce1 protease inhibitor project, dose response (AID 488789).
Trypsin, sequence (P00761 whole entry): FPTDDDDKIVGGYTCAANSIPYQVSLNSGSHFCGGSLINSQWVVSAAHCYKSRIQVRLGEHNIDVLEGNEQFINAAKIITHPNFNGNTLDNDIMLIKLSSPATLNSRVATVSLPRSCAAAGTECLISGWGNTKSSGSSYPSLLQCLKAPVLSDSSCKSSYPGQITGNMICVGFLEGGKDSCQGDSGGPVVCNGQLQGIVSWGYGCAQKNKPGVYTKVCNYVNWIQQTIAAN
For the next experiment, the target named is T1, CAAX prenyl protease 2 (Saccharomyces cerevisiae S288c, UniProt Q03530).
T1 sequence (Q03530 whole entry): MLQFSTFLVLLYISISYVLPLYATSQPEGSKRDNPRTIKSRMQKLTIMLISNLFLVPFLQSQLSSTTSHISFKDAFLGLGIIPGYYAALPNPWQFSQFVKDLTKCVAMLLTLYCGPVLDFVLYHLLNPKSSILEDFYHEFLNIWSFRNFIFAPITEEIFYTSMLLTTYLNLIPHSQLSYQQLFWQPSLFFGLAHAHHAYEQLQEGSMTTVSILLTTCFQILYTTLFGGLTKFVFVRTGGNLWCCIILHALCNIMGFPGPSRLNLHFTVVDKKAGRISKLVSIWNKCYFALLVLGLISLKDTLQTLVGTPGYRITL
It is filed as biochemical.

The target in the next experiment is CAAX prenyl protease 1 (Saccharomyces cerevisiae S288c, UniProt P47154). Nature of the experiment: yeast CAAX protease Ste24 inhibition – biochemical, S. cerevisiae, plate reader, cherry-pick, dose response (AID 488815).
CAAX prenyl protease 1, sequence (P47154 whole entry): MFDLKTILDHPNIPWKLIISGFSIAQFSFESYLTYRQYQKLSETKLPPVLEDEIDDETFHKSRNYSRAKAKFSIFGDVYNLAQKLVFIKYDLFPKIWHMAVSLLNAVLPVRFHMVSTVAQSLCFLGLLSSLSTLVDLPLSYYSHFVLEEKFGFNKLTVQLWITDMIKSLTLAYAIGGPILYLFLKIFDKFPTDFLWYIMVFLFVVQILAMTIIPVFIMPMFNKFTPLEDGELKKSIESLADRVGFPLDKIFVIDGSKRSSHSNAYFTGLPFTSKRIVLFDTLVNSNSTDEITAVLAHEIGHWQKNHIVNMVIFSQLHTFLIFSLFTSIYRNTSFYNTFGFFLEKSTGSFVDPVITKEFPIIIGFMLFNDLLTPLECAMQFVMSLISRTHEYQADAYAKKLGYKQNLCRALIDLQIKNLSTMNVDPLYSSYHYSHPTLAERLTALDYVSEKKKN
In another experiment the test system is Candida albicans. As to the kind of experiment: Candida growth effect without fluconazole – C. albicans CaCi-2, dry powder, counter-screen for antifungal drug resistance project, dose response (AID 488802). It is filed as functional, organism-based.
The next experiment deals with NIH3T3. Nature of the experiment: mammalian cell viability counter-check – Alamar Blue, fluconazole, dry powder, cytotoxicity control for antifungal drug resistance project, dose response (AID 488809). Type of experiment: functional, cell-based. The note with it: Mus musculus. For orientation: The colour change of resazurin is a common sign of viable cells or microbes.

Experiment [5] in a line: Fluorescence polarization-based biochemical high throughput dose response assay for activators of the Protein Kinase A-R1A (PKA-R1A) complex. [Related pubchem assays (depositor defined):AID504704, AID504707, AID504799, AID504800]. (Polarisation of emitted light reports the rotation of a fluorescent probe.)
A short description of experiment [6]: Fluorescence polarization-based biochemical high throughput dose response assay for activators of the Protein Kinase A-R2B (PKA-R2B) complex. [Related pubchem assays (depositor defined):AID504700, AID504704, AID504796, AID504797].
The target in experiment [7] is T2, Tyrosine-protein phosphatase non-receptor type 7 (Homo sapiens, UniProt P35236).
T2 sequence (P35236 whole entry): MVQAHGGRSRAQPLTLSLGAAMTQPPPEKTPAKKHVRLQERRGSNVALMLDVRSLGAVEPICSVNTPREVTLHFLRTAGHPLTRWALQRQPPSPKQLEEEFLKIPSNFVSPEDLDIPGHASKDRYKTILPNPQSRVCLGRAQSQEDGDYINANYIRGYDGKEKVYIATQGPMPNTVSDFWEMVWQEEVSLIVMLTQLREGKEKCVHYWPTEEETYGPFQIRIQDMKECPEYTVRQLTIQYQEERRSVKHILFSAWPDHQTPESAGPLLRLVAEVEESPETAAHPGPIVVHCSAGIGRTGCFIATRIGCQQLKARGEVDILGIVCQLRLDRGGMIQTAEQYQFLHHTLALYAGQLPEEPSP
Type of experiment: functional.

Experiment [8] concerns the target T3, Tyrosine-protein phosphatase non-receptor type 22 (Homo sapiens, UniProt Q9Y2R2). Type of experiment: functional.
The target in experiment [9] is T3, Tyrosine-protein phosphatase non-receptor type 22. Type of experiment: functional. The source holds these as a separate data set.
For experiment [10], the target named is T4, Heat shock factor protein 1 (Mus musculus, UniProt P38532).
T4 sequence (P38532 whole entry): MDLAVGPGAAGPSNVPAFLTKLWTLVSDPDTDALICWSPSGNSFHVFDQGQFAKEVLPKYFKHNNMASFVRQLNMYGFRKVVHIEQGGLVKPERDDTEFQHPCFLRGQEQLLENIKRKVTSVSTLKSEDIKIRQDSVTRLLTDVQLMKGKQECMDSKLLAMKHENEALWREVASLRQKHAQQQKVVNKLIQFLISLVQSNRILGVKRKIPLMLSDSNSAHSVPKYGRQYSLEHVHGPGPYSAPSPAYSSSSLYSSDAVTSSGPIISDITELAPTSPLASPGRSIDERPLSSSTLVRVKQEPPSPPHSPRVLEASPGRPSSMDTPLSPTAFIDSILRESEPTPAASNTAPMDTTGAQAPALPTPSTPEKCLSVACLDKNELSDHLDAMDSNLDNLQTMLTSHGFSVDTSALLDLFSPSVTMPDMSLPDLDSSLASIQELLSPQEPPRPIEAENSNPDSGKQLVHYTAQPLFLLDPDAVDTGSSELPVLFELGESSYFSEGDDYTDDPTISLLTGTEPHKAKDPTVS
Nature of the experiment: enhancement of HSF1-driven luciferase signal – cell-based, NIH3T3, luminescence, dose retest, confirmation (AID 435004).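 Note: stress induced by proteasome inhibitor MG132 added 30 min after compound; luciferase reporter driven by HSF1 response element in NIH3T3 cells; actives raise luminescence as potentiators of the MG132 stress response.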 It is filed as functional.

Experiment [11] concerns HEK293. Nature of the experiment: inhibition of NOD1-driven NF-kB reporter – cell-based, luminescence, uHTS, primary screen (AID 1578). Type of experiment: functional. The note with it: Homo sapiens.
Experiment [12] relates to HEK293. As to the kind of experiment: cells. It is filed as functional, cell-based. The note with it: Homo sapiens.
The test system of experiment [13] is HEK293. As to the kind of experiment: cells. It is filed as functional, cell-based. The note with it: Homo sapiens. The source holds these as a separate data set.
In experiment [14] the target is Nucleotide-binding oligomerization domain-containing protein 2 (Homo sapiens, UniProt Q9HC29). As to the kind of experiment: inhibition of NOD2-driven NF-kB reporter – cell-based, luminescence, uHTS, HEK293 (AID 1566). Type of experiment: functional.
Nucleotide-binding oligomerization domain-containing protein 2, sequence (Q9HC29 whole entry, the tested form may be a part): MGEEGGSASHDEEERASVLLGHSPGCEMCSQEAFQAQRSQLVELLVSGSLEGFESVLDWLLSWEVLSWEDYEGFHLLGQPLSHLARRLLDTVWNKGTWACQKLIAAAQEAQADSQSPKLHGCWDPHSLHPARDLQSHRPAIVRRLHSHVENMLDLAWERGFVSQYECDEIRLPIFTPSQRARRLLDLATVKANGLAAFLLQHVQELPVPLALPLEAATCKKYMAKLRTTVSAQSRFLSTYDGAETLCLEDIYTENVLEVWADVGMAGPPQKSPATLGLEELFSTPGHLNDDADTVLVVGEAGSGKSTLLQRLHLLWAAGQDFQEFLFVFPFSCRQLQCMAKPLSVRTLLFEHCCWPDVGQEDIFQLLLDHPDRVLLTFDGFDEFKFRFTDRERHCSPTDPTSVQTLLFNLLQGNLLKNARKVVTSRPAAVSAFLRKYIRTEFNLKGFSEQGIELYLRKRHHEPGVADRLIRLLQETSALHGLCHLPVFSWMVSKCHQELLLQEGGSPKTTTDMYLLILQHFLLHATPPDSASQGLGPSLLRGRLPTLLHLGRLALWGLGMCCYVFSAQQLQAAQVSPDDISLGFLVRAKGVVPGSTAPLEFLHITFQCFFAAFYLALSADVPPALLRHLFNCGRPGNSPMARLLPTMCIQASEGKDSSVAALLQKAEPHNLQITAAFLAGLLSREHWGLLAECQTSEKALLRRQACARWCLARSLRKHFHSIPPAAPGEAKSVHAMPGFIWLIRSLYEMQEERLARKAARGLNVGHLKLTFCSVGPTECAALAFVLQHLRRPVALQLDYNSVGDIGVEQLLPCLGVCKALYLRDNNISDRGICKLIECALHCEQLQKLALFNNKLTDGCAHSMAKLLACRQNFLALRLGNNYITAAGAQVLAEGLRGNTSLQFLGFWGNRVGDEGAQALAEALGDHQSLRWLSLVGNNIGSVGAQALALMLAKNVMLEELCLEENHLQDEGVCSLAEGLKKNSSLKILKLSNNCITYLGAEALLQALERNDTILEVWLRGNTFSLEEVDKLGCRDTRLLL
In experiment [15] the test system is HEK293. Nature of the experiment: NOD2 signaling inhibitors in MDP-stimulated cells, cell-based, uHTS, luminescence (AID 2001). Type of experiment: functional. The settings on record: Homo sapiens.
Experiment [16] relates to HEK293. Nature of the experiment: cells. Type of experiment: functional, cell-based. The settings on record: Homo sapiens. This is another data set of the same source.
For experiment [17], the target named is Glycogen synthase kinase-3 beta (Homo sapiens, UniProt P49841). As to the kind of experiment: Inhibition of Human GSK-3 beta Activity Measured in Biochemical System Using Microfluidics - 2063-05_Inhibitor_Dose_DryPowder_Activity. [Related pubchem assays (depositor defined):AID2709].
Glycogen synthase kinase-3 beta, sequence (P49841 whole entry): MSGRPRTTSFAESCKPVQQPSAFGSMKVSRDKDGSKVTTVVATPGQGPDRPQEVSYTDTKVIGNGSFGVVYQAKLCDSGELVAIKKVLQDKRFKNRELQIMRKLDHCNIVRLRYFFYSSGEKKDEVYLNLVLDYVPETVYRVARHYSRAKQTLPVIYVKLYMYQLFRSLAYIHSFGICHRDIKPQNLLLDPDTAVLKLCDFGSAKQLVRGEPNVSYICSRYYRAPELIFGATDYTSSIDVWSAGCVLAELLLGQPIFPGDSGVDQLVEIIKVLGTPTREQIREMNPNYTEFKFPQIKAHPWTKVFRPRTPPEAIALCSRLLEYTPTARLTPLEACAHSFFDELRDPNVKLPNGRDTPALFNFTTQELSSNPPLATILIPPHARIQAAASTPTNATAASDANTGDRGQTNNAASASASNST
In experiment [18] the target is Lysine-specific demethylase 4A (Homo sapiens, UniProt O75164). Nature of the experiment: inhibition of JMJD2A H3K9me3 demethylation – biochemical, DELFIA europium, cherry-picked samples, selectivity assay for GASC-1 inhibitor project, dose response (AID 488840).
Experiment [19] has as its target Lysine-specific demethylase 4C (Homo sapiens, UniProt Q9H3R0). As to the kind of experiment: inhibition of JMJD2C H3K9me3 demethylation – biochemical, DELFIA europium, cherry-picked samples, dose response (AID 488835). Type of experiment: functional.
For experiment [20], the target named is UDP-galactopyranose mutase (Mycobacterium tuberculosis, UniProt P9WIQ1). Nature of the experiment: Inhibitors of Mycobacterium tuberculosis UDP-galactopyranose mutase (UGM) enzyme Measured in Biochemical System Using Plate Reader - 2105-02_Inhibitor_Dose_CherryPick_Activity. [Related pubchem assays (depositor defined):AID504439].
UDP-galactopyranose mutase, sequence (P9WIQ1 whole entry): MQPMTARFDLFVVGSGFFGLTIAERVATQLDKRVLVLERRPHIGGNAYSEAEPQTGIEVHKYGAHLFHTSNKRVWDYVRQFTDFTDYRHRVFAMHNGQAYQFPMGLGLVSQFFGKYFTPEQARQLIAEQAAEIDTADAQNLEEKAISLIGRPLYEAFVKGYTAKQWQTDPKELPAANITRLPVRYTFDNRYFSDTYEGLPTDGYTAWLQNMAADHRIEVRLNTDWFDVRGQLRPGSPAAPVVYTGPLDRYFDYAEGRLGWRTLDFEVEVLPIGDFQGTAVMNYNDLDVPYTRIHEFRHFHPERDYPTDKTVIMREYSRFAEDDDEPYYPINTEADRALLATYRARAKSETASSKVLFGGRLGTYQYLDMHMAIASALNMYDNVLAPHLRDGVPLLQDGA

T3 sequence (Q9Y2R2 whole entry): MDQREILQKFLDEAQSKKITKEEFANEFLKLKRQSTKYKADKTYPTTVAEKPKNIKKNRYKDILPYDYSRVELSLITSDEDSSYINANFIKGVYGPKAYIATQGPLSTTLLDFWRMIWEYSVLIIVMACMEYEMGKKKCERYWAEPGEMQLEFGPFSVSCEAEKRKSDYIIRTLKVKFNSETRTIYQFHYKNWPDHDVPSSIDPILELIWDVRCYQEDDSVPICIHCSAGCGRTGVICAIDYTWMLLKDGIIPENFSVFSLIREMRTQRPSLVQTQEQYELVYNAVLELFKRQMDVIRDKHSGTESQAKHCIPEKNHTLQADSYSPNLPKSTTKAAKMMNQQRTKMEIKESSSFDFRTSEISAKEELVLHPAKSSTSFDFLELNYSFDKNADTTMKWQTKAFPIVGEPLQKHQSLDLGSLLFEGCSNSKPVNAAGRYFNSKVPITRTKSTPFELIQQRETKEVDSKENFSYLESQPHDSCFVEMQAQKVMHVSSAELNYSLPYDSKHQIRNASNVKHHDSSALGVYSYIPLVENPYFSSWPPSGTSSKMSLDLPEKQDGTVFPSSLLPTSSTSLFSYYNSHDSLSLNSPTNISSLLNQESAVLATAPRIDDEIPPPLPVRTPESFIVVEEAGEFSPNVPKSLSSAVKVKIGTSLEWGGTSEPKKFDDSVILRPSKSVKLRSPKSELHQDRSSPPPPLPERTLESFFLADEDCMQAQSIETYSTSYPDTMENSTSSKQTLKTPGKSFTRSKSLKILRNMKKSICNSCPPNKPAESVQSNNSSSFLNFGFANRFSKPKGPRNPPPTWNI
Lysine-specific demethylase 4C, sequence (Q9H3R0 whole entry): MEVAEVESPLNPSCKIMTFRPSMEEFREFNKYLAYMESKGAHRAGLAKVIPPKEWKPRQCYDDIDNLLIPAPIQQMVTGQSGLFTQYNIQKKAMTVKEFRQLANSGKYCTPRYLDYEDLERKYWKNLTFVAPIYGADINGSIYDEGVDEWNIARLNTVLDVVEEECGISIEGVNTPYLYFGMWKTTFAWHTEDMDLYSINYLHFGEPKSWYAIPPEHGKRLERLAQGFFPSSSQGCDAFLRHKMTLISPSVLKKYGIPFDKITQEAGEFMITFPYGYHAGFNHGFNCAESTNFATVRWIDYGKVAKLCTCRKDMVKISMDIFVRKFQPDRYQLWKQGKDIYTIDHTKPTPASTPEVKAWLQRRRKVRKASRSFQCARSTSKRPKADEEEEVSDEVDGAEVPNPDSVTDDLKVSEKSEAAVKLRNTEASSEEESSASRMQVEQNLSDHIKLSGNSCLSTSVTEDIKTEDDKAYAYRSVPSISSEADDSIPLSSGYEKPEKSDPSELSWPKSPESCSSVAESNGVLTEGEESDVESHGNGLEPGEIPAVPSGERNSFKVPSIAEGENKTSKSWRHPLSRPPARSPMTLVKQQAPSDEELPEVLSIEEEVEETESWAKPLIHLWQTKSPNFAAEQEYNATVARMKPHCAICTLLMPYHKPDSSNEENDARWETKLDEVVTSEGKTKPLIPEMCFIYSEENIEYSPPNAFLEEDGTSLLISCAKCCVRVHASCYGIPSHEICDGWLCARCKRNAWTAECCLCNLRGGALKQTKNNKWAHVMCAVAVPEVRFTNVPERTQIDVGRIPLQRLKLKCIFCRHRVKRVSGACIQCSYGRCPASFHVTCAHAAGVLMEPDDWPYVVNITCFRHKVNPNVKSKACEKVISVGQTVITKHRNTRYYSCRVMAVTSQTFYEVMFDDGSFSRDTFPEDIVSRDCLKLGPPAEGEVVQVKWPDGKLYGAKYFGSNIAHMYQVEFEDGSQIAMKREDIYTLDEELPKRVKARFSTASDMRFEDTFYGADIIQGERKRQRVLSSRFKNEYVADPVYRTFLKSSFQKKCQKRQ

Regarding `c1cc(CSc2nnc(-c3ccc4c(c3)OCO4)o2)ccn1`, the concentration at half-maximal activity (AC50) with A-375 [1] and in the experiment with A-375 [2] was > 35 µM (active) each time.

Turning to `O=C(Nc1ccccc1)c1ccccc1Br`, the AC50 (as a rule, the concentration giving half of the maximal activity seen) in experiment [3] was 5.98 µM (active). In experiment [4], the EC50 (usually the midpoint of the concentration-response curve) is 1.97 µM (active).

As to `Cc1cc(C)n2cc(CSc3ncccc3C(=O)O)nc2n1`, the half-maximal activity concentration (AC50) at Trypsin is 10.8 µM (active); on CAAX prenyl protease 2, 57.7 µM (active); at CAAX prenyl protease 1, 6.59 µM (active).

`CCCNC(=O)Cn1nc(-c2ccccc2)c2cc(Cl)ccc21`: the concentration at half-maximal activity (AC50) in the experiment with Candida albicans is 83.4 µM (active); in the experiment with NIH3T3, 28.9 µM (active).

For `CCOP1(=O)OCC2OC(n3cnc4c(N)ncnc43)C(O)C2O1` (stereo not given), the EC50 in experiment [5] was 2.68 µM (active); in experiment [6] it was 3.75 µM (active).

On to `O=C(CC1C(=O)N(Cc2ccccc2)C(=S)N1CCN1CCOCC1)Nc1ccc(F)cc1` (stereo not given), for which the IC50 in experiment [7], in [8] and in [9] was > 79.4 µM (inactive) throughout. Further, in [10], the EC50 was > 260 µM (inactive).

With `Cc1ccc(-n2c(C)c([N+](=O)[O-])c3ccc(O)cc32)cc1`, the EC50 in the experiment with HEK293 [11] was 16 µM (active); in experiment [14], > 20 µM (inactive). Moreover, the IC50 – broadly, the concentration that gives 50% inhibition – was 1.05 µM (active) with HEK293 [12], > 20 µM (inactive) in the experiment on HEK293 [13], 1.18 µM (active) in the experiment on HEK293 [15] and > 20 µM (inactive) in the experiment with HEK293 [16]. For the same molecule, the AC50 in [17] is < 0.068 µM (active).

On to `CCC(Sc1nc(N)c(NC(=O)c2ccc(Br)o2)c(O)n1)C(=O)O` (stereo not given), for which the results for the AC50 in [18] and in [19] were 17.5 µM (active) and 5.06 µM (active), respectively.

With `CCCCCCN1C=CC=C/C1=C\C=C(C#N)C#N`, the AC50 in [20] was 44.1 µM (active).
